≈ marks a conversion by molar mass, not a printed value. Entries after “also recorded” stand apart in the source; their conditions may differ. Read-outs that look alike come from different tables or passages of the source. Marks after values point to notes of the source that are not given here.
Experiments:
Format in all cases: physicochemical
[1] = DVS (dynamic vapor sorption) moisture uptake; details: for Moisture Uptake (DVS): 25° C., from 0% RH to 80% RH; for form change after DVS test (XRPD): XRPD before and after DVS
Procedure: (FIG. 5). Sample weight decreased rapidly when humidity decreased from 10% to 0%, which might be caused by loss of crystalline water.
DVS was measured via a SMS (Surface Measurement Systems) DVS Intrinsic.

[2] = Equilibrium solubility in pH buffers (3.0-8.0), 20% captisol and water
Procedure: Additional solids were added into the sample to generate suspension if clear solution obtained. The suspension was equilibrated via stirring (1000 rpm). The suspension was centrifuged to obtain precipitate and supernatants.
Solubility and pH were tested for the supernatants after filtration, and isolated precipitate was tested by XRPD.
(§1) • 1. pH=3.0 buffer (50 mM HCl+KCl): Weigh 365.39 mg KCl into a 100 mL volumetric flask (VF), and add 0.1 mL 1M HCl into the VF, and dilute to volume with water. • 2. pH=4.0 buffer (50 mM citrate): Weigh 56.74 mg citric acid and 60.18 mg trisodium citrate into a 10 mL volumetric flask, and dilute to volume with water. • 3. pH=5.0 buffer (50 mM citrate) Weigh 11.12 mg citric acid and 95.38 mg trisodium citrate into a 10 mL volumetric flask, and dilute to volume with water. • 4. pH=6.0 buffer (50 mM citrate) Weigh 11.04 mg citric acid and 130.2 mg trisodium citrate into a 10 mL volumetric flask, and dilute to volume with water. • 5. pH=6.0 buffer (50 mM phosphate) Weigh 8.7 mg Na2HPO4 and 52.6 mg NaH2PO4 into a 10 mL volumetric flask, and dilute to volume with water. • 6. pH=7.0 buffer (50 mM phosphate) Weigh 23.47 mg Na2HPO4 and 43.34 mg NaH2PO4into a 10 mL volumetric flask, and dilute to volume with water. • 7. pH=8.0 buffer (50 mM phosphate) Weigh 31.64 mg Na2HPO4 and 67.18 mg NaH2PO4into a 10 mL volumetric flask, and dilute to volume with water.

[3] = Equilibrium solubility in pH buffers (pH 4.0-6.0) with pH adjustment; details: for S: solubility: RT, with pH adjustment
Procedure: In details, ˜5 mg of solids were suspended into 1 mL of each medium with dosing conc. at ˜5 mg/mL. Additional solids were added into the sample to generate suspension if clear solution was obtained. The suspension was equilibrated via stirring (1000 rpm) for 24 hours. The pH of the suspension was adjusted when the final pH shifted above 0.3, and the samples were stirred for another 1.5 hours after pH adjustment. The suspension was centrifuged to obtain precipitate and supernatants. Solubility, purity and pH were tested for the supernatants after filtration, and isolated precipitate was tested by XRPD.
as §1

[4] = Approximate solubility at RT
Procedure: Four freeform isolation experiments were performed in different solvent with different acids. Solids were obtained in DCM/HCl and CHCl3/HCl system.
Approximately 2 mg solids were added into a 3-mL glass vial. Solvents in the following table were then added stepwise (50-50-200-700[…] for each step) into the vials and stirred until the solids were dissolved or a total volume of 1 mL was reached. The solubility results were used to guide the solvent selection in polymorph formation.

[5] = Thermodynamic relationships study: slurry competition in acetone/H2O systems; details: RT
Procedure: Slurry competition was conducted in acetone/H2O systems with various water activities (0.0-1.0). […] Solids were separated and tested by XRPD.
To measure the solubility of freeform in acetone/H2O systems with various water activities, the above experiments were re-performed with addition of aw=0.3 acetone/H2O system. The suspension sample was centrifuged to obtain precipitate and supernatants. Solubility was tested for the supernatants after filtration, and isolated precipitate was tested by XRPD.
Solids were separated and tested by XRPD.

[6] = Complexation stability constant test: solubility in HPβCD solutions; details: for solubility at 24 h: thermodynamic from solid
Procedure: Additional solid was added into the sample to generate suspension if clear solution was obtained. The suspension was equilibrated via stirring (1000 rpm) for 24 hours. The suspension was centrifuged to obtain precipitate and supernatants. Solubility and pH was determined for the supernatants after filtration, and XRPD was obtained for the isolated precipitate.

[7] = 20% Captisol (pH = 5.0, w/v), 24 hrs
[8] = pH = 3.0 buffer (50 mM HCl + KCl), 24 hrs
[9] = pH = 5.0 buffer (50 mM citrate), 24 hrs
[10] = pH = 6.0 buffer (50 mM citrate), 24 hrs
[11] = pH = 7.0 buffer (50 mM phosphate), 24 hrs
[12] = pH = 8.0 buffer (50 mM phosphate), 24 hrs
[13] = pH = 4.0 buffer (50 mM citrate)
[14] = pH = 5.0 buffer (50 mM citrate)
[15] = pH = 6.0 buffer (50 mM citrate)
[16] = pH = 6.0 buffer (50 mM phosphate)

Structure (SMILES): CC(=O)NCC1CCN(Cc2cc(Oc3ccc(N4CCN(CCC(=O)O)CC4)nc3)nc(-c3cc(Cl)cc(Cl)c3)c2)CC1 [Freeform Type A]
- Moisture Uptake (DVS) [1]: 6.8% (from 0% RH to 80% RH)
- form change after DVS test (XRPD) [1]: No form change
- solubility at 24 h ([2]; 50 mM phosphate buffer, 21 °C, pH 8, aqueous buffer, thermodynamic from solid, pH = 8.0 buffer (50 mM phosphate), RT, 24 hrs, read-out: S: solubility): 20 µg/mL (≈ 0.0312 mM)
- FC: form change (XRPD of precipitate) [2, 7]: N (N: solid form not changed)
- pH of supernatant (final pH) [2, 7]: 7.7
- S: solubility ([2]; 20% Captisol (pH = 5.0, w/v), RT, 24 hrs): 12.1 mg/mL
- FC: form change (XRPD of precipitate) ([2]; H2O, 24 hrs): N (N: solid form not changed)
- pH of supernatant (final pH) ([2]; H2O, 24 hrs): 6.8
- form change after equilibrium in all media ([2]; all media, 24 hours): No form change
- FC: form change (XRPD of precipitate) [2, 8]: N (N: solid form not changed)
- pH of supernatant (final pH) [2, 8]: 6.3
- S: solubility ([2]; pH = 3.0 buffer (50 mM HCl + KCl), RT, 24 hrs): 0.05 mg/mL
- pH of supernatant (final pH) ([2]; pH = 4.0 buffer (50 mM citrate), 24 hrs): 4.8
- S: solubility ([2]; pH = 4.0 buffer (50 mM citrate), RT, 24 hrs): >17.9^# mg/mL
- FC: form change (XRPD of precipitate) [2, 9]: N (N: solid form not changed)
- pH of supernatant (final pH) [2, 9]: 5.2
- S: solubility ([2]; pH = 5.0 buffer (50 mM citrate), RT, 24 hrs): 3.31 mg/mL
- FC: form change (XRPD of precipitate) [2, 10]: N (N: solid form not changed)
- pH of supernatant (final pH) [2, 10]: 6.1
- S: solubility ([2]; pH = 6.0 buffer (50 mM citrate), RT, 24 hrs): 0.18 mg/mL
- FC: form change (XRPD of precipitate) [2, 11]: N (N: solid form not changed)
- pH of supernatant (final pH) [2, 11]: 7.1
- FC: form change (XRPD of precipitate) [2, 12]: N (N: solid form not changed)
- pH of supernatant (final pH) [2, 12]: 8.0
- form change after equilibrium in all media ([3]; all media, 24 hours): No form change
- Area % (purity of supernatant) [3, 13]: 99.9 Area %
- pH (final, after adjustment where adjusted) [3, 13]: 4.2*
- pH before adjustment (in brackets) ([3]; pH = 4.0 buffer (50 mM citrate), 24 hours): (5.0)
- S: solubility [3, 13]: >36.9^# mg/mL
- Area % (purity of supernatant) [3, 14]: 99.6 Area %
- FC: form change (XRPD of precipitate) [3, 14]: N (N: solid form not changed)
- pH (final, after adjustment where adjusted) [3, 14]: 5.2
- S: solubility [3, 14]: 3.31 mg/mL
- Area % (purity of supernatant) [3, 15]: 99.6 Area %
- FC: form change (XRPD of precipitate) [3, 15]: N (N: solid form not changed)
- pH (final, after adjustment where adjusted) [3, 15]: 6.0
- S: solubility [3, 15]: 0.15 mg/mL
- Area % (purity of supernatant) [3, 16]: 99.3 Area %
- FC: form change (XRPD of precipitate) [3, 16]: N (N: solid form not changed)
- pH (final, after adjustment where adjusted) [3, 16]: 6.0
- S: solubility [3, 16]: 0.11 mg/mL
- solubility ([4]; 1,4-dioxane, organic solvent or mixture, thermodynamic from solid, 1,4-Dioxane, RT, read-out: Solubility): < 1900 µg/mL
- solubility ([4]; 2-MeTHF, organic solvent or mixture, thermodynamic from solid, 2-MeTHF, RT, read-out: Solubility): < 1700 µg/mL
- solubility ([4]; ACN, organic solvent or mixture, thermodynamic from solid, ACN, RT, read-out: Solubility): < 1900 µg/mL
- solubility ([4]; Anisole, organic solvent or mixture, thermodynamic from solid, Anisole, RT, read-out: Solubility): < 2000 µg/mL
- solubility ([4]; CHCl3, RT, solvent for freeform isolation): S < 1.2 mg/mL
- solubility ([4]; CHCl3, organic solvent or mixture, thermodynamic from solid, CHCl3, RT, read-out: Solubility): < 2100 µg/mL
- solubility ([4]; CPME, organic solvent or mixture, thermodynamic from solid, CPME, RT, read-out: Solubility): < 2000 µg/mL
- solubility ([4]; DCM, organic solvent or mixture, thermodynamic from solid, DCM, RT, read-out: Solubility): < 1800 µg/mL
- solubility ([4]; DMSO, organic solvent or mixture, thermodynamic from solid, DMSO, RT, read-out: Solubility): 17000 to 34000 µg/mL (≈ 26.5 to 53 mM)
- solubility ([4]; EtOAc, organic solvent or mixture, thermodynamic from solid, EtOAc, RT, read-out: Solubility): < 2000 µg/mL
- solubility ([4]; EtOH, organic solvent or mixture, thermodynamic from solid, EtOH, RT, read-out: Solubility): 7300 to 22000 µg/mL (≈ 11.4 to 34.3 mM)
- solubility ([4]; IPA, organic solvent or mixture, thermodynamic from solid, IPA, RT, read-out: Solubility): 1500 to 1800 µg/mL (≈ 2.34 to 2.81 mM)
- solubility ([4]; IPAc, organic solvent or mixture, thermodynamic from solid, IPAc, RT, read-out: Solubility): < 1900 µg/mL
- solubility ([4]; MIBK, organic solvent or mixture, thermodynamic from solid, MIBK, RT, read-out: Solubility): < 2100 µg/mL
- solubility ([4]; MTBE, organic solvent or mixture, thermodynamic from solid, MTBE, RT, read-out: Solubility): < 1900 µg/mL
- solubility ([4]; MeOH, organic solvent or mixture, thermodynamic from solid, MeOH, RT, read-out: Solubility): > 40000 µg/mL
- solubility ([4]; THF, organic solvent or mixture, thermodynamic from solid, THF, RT, read-out: Solubility): 4000 to 8000 µg/mL (≈ 6.23 to 12.5 mM)
- solubility ([4]; Toluene, organic solvent or mixture, thermodynamic from solid, Toluene, RT, read-out: Solubility): < 2100 µg/mL
- solubility ([4]; acetone, organic solvent or mixture, thermodynamic from solid, Acetone, RT, read-out: Solubility): < 1900 µg/mL
- solubility ([4]; n-Heptane, organic solvent or mixture, thermodynamic from solid, n-Heptane, RT, read-out: Solubility): < 2200 µg/mL
- solubility ([4]; water, thermodynamic from solid, H2O, RT, read-out: Solubility): < 2000 µg/mL

Structure (SMILES): CC(=O)NCC1CCN(Cc2cc(Oc3ccc(N4CCN(CCC(=O)O)CC4)nc3)nc(-c3cc(Cl)cc(Cl)c3)c2)CC1 [Freeform Type D]
- Moisture Uptake (DVS) [1]: 6.3% (from 0% RH to 80% RH)
- form change after DVS test (XRPD) [1]: No form change
- thermodynamic relationship of the forms [5]: thermodynamic form at the ambient conditions; also recorded: more stable hydrate form compared to freeform Type A
- solubility at 24 h ([6]; 5% (w/w) HPβCD solution, aqueous with cosolvent or surfactant or cyclodextrin, 5% (w/w) HPβCD, RT, 24 hours, final pH 7.3, read-out: Solubility): 420 µg/mL
- solubility at 24 h ([6]; 5% (w/w) HPβCD solution, pH 7.3, aqueous with cosolvent or surfactant or cyclodextrin, 5% HPβCD (40.78 mmol/L), read-out: API Solubility): 660 µM
- solubility at 24 h ([6]; 10% (w/w) HPβCD solution, aqueous with cosolvent or surfactant or cyclodextrin, 10% (w/w) HPβCD, RT, 24 hours, final pH 7.2, read-out: Solubility): 940 µg/mL
- solubility at 24 h ([6]; 10% (w/w) HPβCD solution, pH 7.2, aqueous with cosolvent or surfactant or cyclodextrin, 10% HPβCD (81.56 mmol/L), read-out: API Solubility): 1470 µM
- solubility at 24 h ([6]; 15% (w/w) HPβCD solution, aqueous with cosolvent or surfactant or cyclodextrin, 15% (w/w) HPβCD, RT, 24 hours, final pH 7.1, read-out: Solubility): 1420 µg/mL
- solubility at 24 h ([6]; 15% (w/w) HPβCD solution, pH 7.1, aqueous with cosolvent or surfactant or cyclodextrin, 15% HPβCD (122.34 mmol/L), read-out: API Solubility): 2220 µM
- solubility at 24 h ([6]; 20% (w/w) HPβCD solution, aqueous with cosolvent or surfactant or cyclodextrin, 20% (w/w) HPβCD, RT, 24 hours, final pH 7.0, read-out: Solubility): 2090 µg/mL
- solubility at 24 h ([6]; 20% (w/w) HPβCD solution, pH 7, aqueous with cosolvent or surfactant or cyclodextrin, 20% HPβCD (163.11 mmol/L), read-out: API Solubility): 3260 µM
- solubility at 24 h ([6]; 25% (w/w) HPβCD solution, aqueous with cosolvent or surfactant or cyclodextrin, 25% (w/w) HPβCD, RT, 24 hours, final pH 7.0, read-out: Solubility): 2890 µg/mL
- solubility at 24 h ([6]; 25% (w/w) HPβCD solution, pH 7, aqueous with cosolvent or surfactant or cyclodextrin, 25% HPβCD (203.89 mmol/L), read-out: API Solubility): 4510 µM
- form change during solubility evaluation (XRPD) ([6]; HPβCD solutions, 24 hours): No form change
- complexation stability constant K^1:1 ([6]; HPβCD, Higuchi-Connors phase-solubility method): 1529 M⁻¹
